For 15 compounds, GI50 and TGI results are on record in PubChem BioAssay (NCI).

Several values for one entry are separate records, joined by “and”; a condition that tells them apart may be missing. Identical values can stand only once.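 Briefly, cells in 96-well plates were exposed to five compound concentrations for 48 h, and endpoints were estimated by linear interpolation. GI50 = concentration required for 50% inhibition of growth. TGI: total growth inhibition.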 Some results are limits rather than exact numbers.

Some test systems named below: LOX IMVI melanoma; MALME-3M melanoma; DU-145 prostate; UACC-257 melanoma; U251 CNS; SNB-75 CNS; OVCAR-4 ovarian; OVCAR-5 ovarian; SNB-19 CNS; CCRF-CEM leukemia.
What all share (test): NCI tumour cell line growth inhibition, 48 h

As for `O=c1ccc2nc(-c3ccccn3)nn(-c3ccccc3)c-2c1`, the GI50 was 1.78 µM in the assay with LOX IMVI melanoma; 1.77 µM in the assay with MALME-3M melanoma; 3.77 µM with DU-145 prostate; 1.92 µM with UACC-257 melanoma; 3.7 µM with U251 CNS; 11.4 µM in the assay on SNB-75 CNS. Further, the GI50 in the assay on OVCAR-4 ovarian is 1.56 µM; in the assay on OVCAR-5 ovarian it was 4.99 µM. Also, the TGI in the assay on LOX IMVI melanoma was determined as 3.44 µM; in the assay with MALME-3M melanoma it was 3.37 µM; with DU-145 prostate, 11.1 µM; in the assay with UACC-257 melanoma, 3.93 µM; in the assay with U251 CNS, 14.2 µM; in the assay on SNB-75 CNS, 23.5 µM. The TGI was 3.04 µM with OVCAR-4 ovarian and 18.1 µM in the assay with OVCAR-5 ovarian.
As for `C/C=C(/C)C(=O)O[C@H]1[C@H](O)CC(c2ccc3c(c2O)C(O)=C2C(=O)C4(OC)C(O)=C(C(N)=O)C(=O)[C@H](CC(=O)c5ccccc5O)C4CC2[C@@]3(C)OC)O[C@@H]1C` (stereo partly specified), the TGI with LOX IMVI melanoma is 0.132 µM; in the assay on MALME-3M melanoma it was 2.87 µM; in the assay with SNB-19 CNS, 1.68 µM and 1.06 µM; in the assay with U251 CNS, 0.148 µM and 0.117 µM; in the assay on SNB-75 CNS, 2.05 µM and 0.705 µM; in the assay on OVCAR-4 ovarian it was 17 µM. In addition, the TGI in the assay on OVCAR-5 ovarian is 2.02 µM and 0.916 µM.
In the case of `C=CCC(C(=O)Nc1cccc2[nH]cnc12)C(=O)OCC` (stereo unspecified), the TGI with LOX IMVI melanoma, with DU-145 prostate, in the assay on UACC-257 melanoma, in the assay on SNB-19 CNS, in the assay with U251 CNS and in the assay on SNB-75 CNS was over 100 µM in each case. Besides, the TGI with OVCAR-4 ovarian and in the assay on OVCAR-5 ovarian was over 100 µM in each case.
Take `Cc1ccc(-n2cc([Si](C)(C)C)nn2)s1`: the TGI in the assay on LOX IMVI melanoma, with MALME-3M melanoma, with DU-145 prostate, in the assay on UACC-257 melanoma, with SNB-19 CNS and in the assay with U251 CNS was over 100 µM each time. For the same compound, the TGI with OVCAR-4 ovarian and in the assay with OVCAR-5 ovarian was over 100 µM each time.
For the compound `CCN1CCC(O)(/C=C/c2ccc(OC)cc2)C(C(=O)/C=C/c2ccc(OC)cc2)C1` (stereo unspecified), the TGI with LOX IMVI melanoma worked out at 8.82 µM; with MALME-3M melanoma, 32.8 µM; in the assay with DU-145 prostate it was 22.8 µM; with UACC-257 melanoma it was 30.9 µM; in the assay with CCRF-CEM leukemia, 5.76 µM; with SNB-19 CNS, 29.9 µM. Besides, the figures for the TGI with U251 CNS, with OVCAR-4 ovarian and with OVCAR-5 ovarian were 19.7 µM, 26.7 µM and 28.8 µM, respectively.
Take `Cc1nc2ccccc2c(/C=C/c2ccc(Cl)cc2)c1C(=O)/C=C/c1ccccc1`: the GI50 is 1.64 µM in the assay on LOX IMVI melanoma; 1.63 µM in the assay on MALME-3M melanoma; 1.32 µM in the assay on CCRF-CEM leukemia; 1.61 µM in the assay on U251 CNS; 1.83 µM in the assay with OVCAR-5 ovarian. Moreover, the TGI with LOX IMVI melanoma was 3.03 µM; with MALME-3M melanoma, 3.01 µM; in the assay with CCRF-CEM leukemia, over 100 µM; in the assay on U251 CNS, 3.07 µM; in the assay with OVCAR-5 ovarian, 3.39 µM.
Turning to `CN1C/C(=C\C=C\c2ccccc2)C(=O)/C(=C/C=C/c2ccccc2)C1`, the TGI in the assay with LOX IMVI melanoma, in the assay with MALME-3M melanoma, in the assay with UACC-257 melanoma, with CCRF-CEM leukemia, in the assay with SNB-19 CNS and in the assay with U251 CNS was over 100 µM in each case. Moreover, the TGI in the assay with SNB-75 CNS, in the assay on OVCAR-4 ovarian and with OVCAR-5 ovarian was over 100 µM in each case.
With `COc1ccc(Nc2nc(N)c(C(=O)c3cccs3)s2)cc1`, the TGI is over 100 µM in the assay with LOX IMVI melanoma; 64.8 µM in the assay on MALME-3M melanoma; 36.3 µM with DU-145 prostate; 31.3 µM in the assay with UACC-257 melanoma; 12.8 µM with CCRF-CEM leukemia; over 64.8 µM in the assay on SNB-19 CNS. For the same compound, the TGI was over 100 µM in the assay on U251 CNS, 48.1 µM with OVCAR-4 ovarian and over 79.7 µM with OVCAR-5 ovarian.
Consider `CCCCNC(=O)/N=C/c1c(O)c2ccccc2oc1=O`, for which the TGI in the assay on LOX IMVI melanoma, in the assay with UACC-257 melanoma, in the assay on SNB-19 CNS, in the assay with OVCAR-4 ovarian and with OVCAR-5 ovarian was over 100 µM throughout.
As for `O=C1NCCS(=O)(=O)N2CCC[C@@H]12`, the TGI with LOX IMVI melanoma, in the assay with MALME-3M melanoma, in the assay with UACC-257 melanoma, in the assay on CCRF-CEM leukemia, with SNB-19 CNS and in the assay with U251 CNS was over 100 µM each time. Moreover, the TGI in the assay on SNB-75 CNS, with OVCAR-4 ovarian and in the assay with OVCAR-5 ovarian was over 100 µM throughout.
Regarding `O=C1c2ccccc2C(=O)c2[nH]c(Cc3ccc(F)cc3)nc21`, the TGI in the assay with MALME-3M melanoma was 29.6 µM; in the assay with UACC-257 melanoma it was 30.4 µM; in the assay on CCRF-CEM leukemia it was over 100 µM; with SNB-19 CNS it was 51.3 µM; in the assay with U251 CNS, 47 µM; in the assay with SNB-75 CNS, 38.3 µM. This compound showed a TGI in the assay with OVCAR-4 ovarian of 34.9 µM.
Take `Cc1c(C(=O)O)n2cnnc2c2ccccc12`: the TGI in the assay with LOX IMVI melanoma, in the assay with DU-145 prostate, in the assay on UACC-257 melanoma, in the assay on CCRF-CEM leukemia, with SNB-19 CNS and in the assay with U251 CNS was over 100 µM throughout. The TGI in the assay with OVCAR-4 ovarian and in the assay with OVCAR-5 ovarian was over 100 µM each time.
Turning to `COc1ccc2nc3cc(Cl)ccc3c(NCCNc3c4ccc(Cl)cc4nc4ccc(OC)cc34)c2c1`, the GI50 in the assay with MALME-3M melanoma was 2.07 µM; in the assay with DU-145 prostate, 1.68 µM; with UACC-257 melanoma, 2.06 µM; with CCRF-CEM leukemia, 2.19 µM; in the assay with U251 CNS it was 1.77 µM. Further, the TGI is 3.76 µM in the assay on MALME-3M melanoma; 3.08 µM in the assay on DU-145 prostate; 3.69 µM in the assay on UACC-257 melanoma; 6.68 µM in the assay with CCRF-CEM leukemia; 3.28 µM in the assay on U251 CNS.
On to `O=C(CSc1nc2ccccc2c(=O)n1-c1ccccc1)N=Nc1c(O)[nH]c2ccc(F)cc12`, for which the TGI is over 100 µM in the assay on LOX IMVI melanoma; 4.17 µM in the assay with DU-145 prostate; 6 µM in the assay with UACC-257 melanoma; 5.04 µM in the assay on CCRF-CEM leukemia; 67.5 µM in the assay on SNB-19 CNS; over 100 µM in the assay with U251 CNS. Besides, the TGI in the assay with OVCAR-4 ovarian was found to be 4.34 µM; with OVCAR-5 ovarian, 4.73 µM.
As for `CC(C)(C)OC(=O)NCC(=O)N1CCN(C(=O)CNC(=O)OC(C)(C)C)CC1`, the TGI in the assay on LOX IMVI melanoma, with DU-145 prostate, with UACC-257 melanoma, in the assay on CCRF-CEM leukemia, in the assay with SNB-19 CNS and with U251 CNS was over 100 µM throughout. The TGI in the assay with OVCAR-4 ovarian and with OVCAR-5 ovarian was over 100 µM in each case.
